In ChEMBL document CHEMBL4219222, “A new class of pyrazolo[5,1-c][1,2,4]triazines as γ-aminobutyric type A (GABAA) receptor subtype ligand: synthesis and pharmacological evaluation” (Bioorg Med Chem, 2018):

How the values were obtained:
[1] = organism: Bos taurus; assay: Displacement of [3H]Ro15-1788 from GABAA receptor in bovine cerebral cortex membranes at 10 uM after 90 mins by liquid scintillation counting method relative to control; assay type: cell membranes; details: Membrane
[2] = Displacement of [3H]Ro15-1788 from GABAA receptor in bovine cerebral cortex membranes after 90 mins by liquid scintillation counting method; assay type: cell membranes, Bos taurus, Membrane
[3] = biological target: GABA A receptor alpha-5/beta-3/gamma-2 (Rattus norvegicus, UniProt P18508+P19969+P63079); assay: Displacement of [3H]Ro15-1788 from recombinant rat GABAAalpha5/beta3/gamma2 receptor after 90 mins by liquid scintillation counting method; assay type: protein-complex assay
[4] = organism: Rattus norvegicus; assay: Displacement of [3H]Ro15-1788 from recombinant rat GABAAalpha3/beta2/gamma2 receptor at 10 uM after 90 mins by liquid scintillation counting method relative to control
[5] = organism: Rattus norvegicus; assay: Selectivity ratio of Ki for recombinant rat GABAAalpha1/beta2/gamma2 receptor to Ki for recombinant rat GABAAalpha2/beta2/gamma2 receptor
[6] = biological target: GABA-A receptor; alpha-1/beta-2/gamma-2 (Rattus norvegicus, UniProt P18508+P62813+P63138); assay: Displacement of [3H]Ro15-1788 from recombinant rat GABAAalpha1/beta2/gamma2 receptor after 90 mins by liquid scintillation counting method; assay type: protein-complex assay
[7] = organism: Rattus norvegicus; assay: Selectivity ratio of Ki for recombinant rat GABAAalpha5/beta3/gamma2 receptor to Ki for recombinant rat GABAAalpha2/beta2/gamma2 receptor
[8] = Displacement of [3H]Ro15-1788 from recombinant rat GABAAalpha2/beta2/gamma2 receptor after 90 mins by liquid scintillation counting method
[9] = Displacement of [3H]Ro15-1788 from recombinant rat GABAAalpha3/beta2/gamma2 receptor after 90 mins by liquid scintillation counting method
[10] = biological target: GABA A receptor alpha-5/beta-3/gamma-2 (Rattus norvegicus) (UniProt P18508+P19969+P63079); assay: Displacement of [3H]Ro15-1788 from recombinant rat GABAAalpha5/beta3/gamma2 receptor at 10 uM after 90 mins by liquid scintillation counting method relative to control; assay type: protein-complex assay
[11] = organism: Rattus norvegicus; assay: Displacement of [3H]Ro15-1788 from recombinant rat GABAAalpha2/beta2/gamma2 receptor at 10 uM after 90 mins by liquid scintillation counting method relative to control

Chain of GABA-A receptor; alpha-1/beta-2/gamma-2 (P18508 whole entry): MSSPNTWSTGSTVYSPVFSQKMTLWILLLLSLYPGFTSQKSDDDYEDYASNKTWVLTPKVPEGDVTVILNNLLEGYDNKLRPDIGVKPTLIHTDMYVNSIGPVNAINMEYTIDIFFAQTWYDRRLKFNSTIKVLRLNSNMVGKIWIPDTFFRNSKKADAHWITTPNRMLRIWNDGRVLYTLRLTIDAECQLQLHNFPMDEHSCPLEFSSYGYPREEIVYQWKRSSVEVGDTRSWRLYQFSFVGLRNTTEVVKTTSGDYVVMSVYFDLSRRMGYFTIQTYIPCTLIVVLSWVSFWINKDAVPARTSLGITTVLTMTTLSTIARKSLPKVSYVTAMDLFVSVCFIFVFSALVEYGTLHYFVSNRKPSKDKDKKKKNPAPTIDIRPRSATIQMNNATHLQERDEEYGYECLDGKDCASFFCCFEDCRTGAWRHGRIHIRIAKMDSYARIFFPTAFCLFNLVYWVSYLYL
Chain of GABA-A receptor; alpha-1/beta-2/gamma-2 (P62813 whole entry): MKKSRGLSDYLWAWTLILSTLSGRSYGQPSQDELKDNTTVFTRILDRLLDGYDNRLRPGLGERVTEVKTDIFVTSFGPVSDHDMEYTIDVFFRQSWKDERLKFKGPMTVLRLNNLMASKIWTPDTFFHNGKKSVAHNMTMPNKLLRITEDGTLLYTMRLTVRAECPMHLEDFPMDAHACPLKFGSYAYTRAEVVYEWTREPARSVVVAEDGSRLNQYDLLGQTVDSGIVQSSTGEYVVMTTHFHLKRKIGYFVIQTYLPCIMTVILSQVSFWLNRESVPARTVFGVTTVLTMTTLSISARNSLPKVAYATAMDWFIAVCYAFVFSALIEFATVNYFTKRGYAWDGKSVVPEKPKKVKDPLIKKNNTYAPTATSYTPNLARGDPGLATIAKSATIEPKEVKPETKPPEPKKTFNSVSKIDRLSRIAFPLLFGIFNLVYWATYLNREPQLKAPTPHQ
Chain of GABA-A receptor; alpha-1/beta-2/gamma-2 (P63138 whole entry): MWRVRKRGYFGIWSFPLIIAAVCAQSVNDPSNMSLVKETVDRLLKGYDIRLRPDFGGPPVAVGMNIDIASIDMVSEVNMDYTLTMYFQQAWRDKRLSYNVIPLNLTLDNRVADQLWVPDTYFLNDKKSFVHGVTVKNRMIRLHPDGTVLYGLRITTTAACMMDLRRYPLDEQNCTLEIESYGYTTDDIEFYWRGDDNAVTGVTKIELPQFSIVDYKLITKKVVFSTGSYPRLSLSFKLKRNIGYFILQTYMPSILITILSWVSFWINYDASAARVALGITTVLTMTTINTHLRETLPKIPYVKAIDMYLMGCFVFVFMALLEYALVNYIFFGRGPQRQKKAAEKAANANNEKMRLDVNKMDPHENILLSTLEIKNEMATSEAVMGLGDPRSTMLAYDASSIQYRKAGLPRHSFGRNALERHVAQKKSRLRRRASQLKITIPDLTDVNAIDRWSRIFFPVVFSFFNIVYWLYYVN
Chain of GABA A receptor alpha-5/beta-3/gamma-2 (P18508 whole entry): as the sequence (P18508 whole entry) above
Chain of GABA A receptor alpha-5/beta-3/gamma-2 (P19969 whole entry): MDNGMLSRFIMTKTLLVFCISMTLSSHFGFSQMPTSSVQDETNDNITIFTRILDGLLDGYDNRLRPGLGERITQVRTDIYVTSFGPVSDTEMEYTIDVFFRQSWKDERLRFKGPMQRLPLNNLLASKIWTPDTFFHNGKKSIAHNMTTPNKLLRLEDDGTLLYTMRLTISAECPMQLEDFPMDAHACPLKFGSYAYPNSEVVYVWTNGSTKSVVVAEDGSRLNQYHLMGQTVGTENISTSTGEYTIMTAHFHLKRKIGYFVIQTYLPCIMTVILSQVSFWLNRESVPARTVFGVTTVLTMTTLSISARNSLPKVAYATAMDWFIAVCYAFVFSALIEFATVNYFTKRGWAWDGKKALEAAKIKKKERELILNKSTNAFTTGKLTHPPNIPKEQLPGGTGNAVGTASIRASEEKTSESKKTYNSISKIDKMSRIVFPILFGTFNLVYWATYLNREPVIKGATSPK
Chain of GABA A receptor alpha-5/beta-3/gamma-2 (P63079 whole entry): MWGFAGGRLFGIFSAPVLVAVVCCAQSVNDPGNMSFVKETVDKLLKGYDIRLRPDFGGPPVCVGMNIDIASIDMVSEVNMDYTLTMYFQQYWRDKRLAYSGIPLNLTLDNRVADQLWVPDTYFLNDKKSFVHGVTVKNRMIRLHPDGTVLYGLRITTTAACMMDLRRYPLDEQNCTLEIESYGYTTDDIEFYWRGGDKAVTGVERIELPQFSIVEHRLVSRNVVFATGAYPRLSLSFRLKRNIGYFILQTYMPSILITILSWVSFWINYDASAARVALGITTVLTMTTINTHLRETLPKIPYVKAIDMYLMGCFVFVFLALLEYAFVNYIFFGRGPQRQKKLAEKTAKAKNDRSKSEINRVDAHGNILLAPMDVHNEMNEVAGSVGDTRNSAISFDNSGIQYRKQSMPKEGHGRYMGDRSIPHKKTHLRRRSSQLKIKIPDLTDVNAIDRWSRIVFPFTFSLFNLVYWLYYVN

Compound	Ki [2] [nM]	Ki [6] [nM]	Ki [8] [nM]	also measured
O=c1c(-n2cccn2)c[nH]c2c(-c3cccs3)cnn12	–	–	–	inhibition [1]: 13.9%
O=c1c(-c2cc[nH]n2)n[nH]c2c(-c3cccs3)cnn12	237	285	41.2	Ki [3]: 662 nM; inhibition [4]: 28%; Ratio Ki [5]: 7; Ratio Ki [7]: 16
O=c1c(-c2cc[nH]n2)n[nH]c2c(-c3cccnc3)cnn12	73.6	51	5000	Ki [3]: 1240 nM; Ki [9]: 502 nM
O=c1c(-c2cc[nH]n2)n[nH]c2c(-c3cccc(F)c3)cnn12	152	100	632	inhibition [10]: 23%; Ki [9]: 1080 nM
O=c1c(-c2cc[nH]n2)n[nH]c2c(-c3ccccn3)cnn12	10.5	9.1	12	inhibition [10]: 32%
O=c1c(-c2cc[nH]n2)n[nH]c2c(-c3ccccc3)cnn12	329	420	3000	Ki [3]: 408 nM; Ki [9]: 2090 nM
O=c1c(-n2ccnc2)c[nH]c2c(-c3ccccc3)cnn12	–	–	–	inhibition [1]: 2%
O=c1c(-c2cc[nH]n2)c[nH]c2c(-c3ccc4ccccc4c3)cnn12	–	–	–	inhibition [1]: 20%
O=c1c(-c2cc[nH]n2)n[nH]c2c(-c3ccc4ccccc4c3)cnn12	2300	–	–	–
O=c1c(-c2cc[nH]n2)c[nH]c2c(Cc3ccccc3)cnn12	854	–	–	–
O=c1c(-c2cc[nH]n2)n[nH]c2c(-c3ccc(F)cc3)cnn12	88.3	77.3	2420	Ki [3]: 1110 nM; Ki [9]: 894 nM
O=c1c(-c2cc[nH]n2)c[nH]c2c(-c3cccc(Cl)c3)cnn12	95.4	–	–	–
O=c1c(-c2cc[nH]n2)n[nH]c2c(-c3cccc(C(F)(F)F)c3)cnn12	7.2	6.5	> 5000	Ki [3]: 144 nM; Ki [9]: 501 nM
O=c1c(-c2cc[nH]n2)c[nH]c2c(-n3cccc3)cnn12	2670	–	–	–
O=c1c(-c2cc[nH]n2)c[nH]c2c(-c3ccccn3)cnn12	14.2	–	–	–
O=c1c(-c2cc[nH]n2)c[nH]c2c(-c3ccccc3)cnn12	326	–	–	–
O=c1c(-c2cc[nH]n2)n[nH]c2c(-c3cccc(Cl)c3)cnn12	74	65.6	990	inhibition [10]: 40%; Ki [9]: 660 nM
COc1ccc(-c2cnn3c(=O)c(-c4cc[nH]n4)n[nH]c23)cc1	1610	–	–	–
O=c1c(-n2cccn2)c[nH]c2c(-c3ccccc3)cnn12	–	–	–	inhibition [1]: 59.5%
O=c1c(-c2cc[nH]n2)n[nH]c2c(-c3cccc4ccccc34)cnn12	77	150	–	Ki [3]: 159 nM
O=c1c(-c2cc[nH]n2)c[nH]c2c(-c3cccs3)cnn12	533	–	–	–
O=c1c(-c2cc[nH]n2)n[nH]c2c(-c3cccc(Br)c3)cnn12	38	21	–	Ki [3]: 1120 nM; Ki [9]: 570 nM; inhibition [11]: 50%
O=c1c(-c2cc[nH]n2)c[nH]c2c(-c3cccc4ccccc34)cnn12	599	–	–	–
O=c1c(-n2ccnc2)c[nH]c2c(-c3cccs3)cnn12	–	–	–	inhibition [1]: 14.7%
Cc1ccc(-c2cnn3c(=O)c(-c4cc[nH]n4)n[nH]c23)cc1	–	–	–	inhibition [1]: 32%
O=c1c(-c2cc[nH]n2)c[nH]c2c(-c3cccnc3)cnn12	37.3	–	–	–
